From patent US9074014B2 (Ipsen Pharma S.A.S., priority 2008, dated 2015) come the findings set out here.

*1 amine or outer side, *2 acyl side, *3 side chain or, on linkers, in order; H or OH if unused. Where a SMILES comes first, the peptide text is derived from it. Where no end group is shown, it is not given here. [ ]: non-standard residue; d: D form. The star is where a group is joined. X2 = O=C([C@@H]1CC(O)CN1[*:1])[*:2]; Ac6c = NC1(C(=O)O)CCCCC1; Nle = CCCC[C@H](N)C(=O)O; X1 = CCCN1C(=O)CC(*)C1=O; Ac5c = NC1(C(=O)O)CCCC1; Aib = CC(C)(N)C(=O)O

Data set [1] can be described thus: Human plasma half-life assay. It is filed as in vitro ADME. To be noted: human plasma, 37° C., LC-MS; read-out: Human Plasma T½ (converted).
The nature of data set [2]: Rat plasma half-life assay. It counts as in vitro ADME. To be noted: rat plasma, 37° C., LC-MS; read-out: Rat Plasma T½ (converted).

Turning to “Y[Aib]EGTFISDY[Aib]IA[Nle]DKIHQQDFVNWLLAQKGKKNDWKHNITQ-OH [Example 45, (Aib^2, 11, Nle^14)hGIP(1-42)-OH]”, the values for the half-life at 0.1 mg/ml in data set [1] and in data set [2] were 18.2 h and 11.6 h, respectively.

Regarding “YAPGTFISDYSI[Aib][Nle]DKIHQQDFVNWLLAQKGKKNDWKHNITQ-OH [Example 62, (Pro^3, Aib^13, Nle^14)hGIP(1-42)-OH]”, the half-life at 0.1 mg/ml was 11.4 h in data set [1] and 1.4 h in data set [2].

As to “Y[Aib]EGTFISDYS[Aib]AMDKIHQQDFVNWLLAQKGKKNDWKHNITQ-OH [Example 8, (Aib^2, 12)hGIP(1-42)-OH]”, the half-life at 0.1 mg/ml in data set [1] was more than 48 h; in data set [2], 4.5 h.

“H-YA[X2]GTFISDYSIA[Ac6c]DKIHQQDFVNWLLAQKGKKNDWKHNITQ-OH [Example 84, (4Hyp^3, A6c^14)hGIP(1-42)-OH]”: the results for the half-life at 0.1 mg/ml in data set [1] and in data set [2] were 3.3 h and 1.9 h, respectively.

Regarding `CCCC[C@H](NC(=O)[C@H](C)NC(=O)[C@@H](NC(=O)[C@H](CO)NC(=O)[C@H](Cc1ccc(O)cc1)NC(=O)[C@H](CC(=O)O)NC(=O)[C@H](CO)NC(=O)C1(NC(=O)[C@H](Cc2ccccc2)NC(=O)[C@@H](NC(=O)CNC(=O)[C@H](CCC(=O)O)NC(=O)C(C)(C)NC(=O)[C@@H](N)Cc2ccc(O)cc2)[C@@H](C)O)CCCC1)[C@@H](C)CC)C(=O)N[C@@H](CC(=O)O)C(=O)N[C@@H](CCCCN)C(=O)N[C@H](C(=O)N[C@@H](Cc1c[nH]cn1)C(=O)N[C@@H](CCC(N)=O)C(=O)N[C@@H](CCC(N)=O)C(=O)N[C@@H](CC(=O)O)C(=O)N[C@@H](Cc1ccccc1)C(=O)N[C@H](C(=O)N[C@@H](CC(N)=O)C(=O)N[C@@H](Cc1c[nH]c2ccccc12)C(=O)N[C@@H](CC(C)C)C(=O)N[C@@H](CC(C)C)C(=O)N[C@@H](C)C(=O)N[C@@H](CCC(N)=O)C(=O)N[C@@H](CCCCN)C(N)=O)C(C)C)[C@@H](C)CC` [Example 32, (Aib^2, A5c^7, Nle^14)hGIP(1-30)-NH2] (H-Y[Aib]EGTF[Ac5c]SDYSIA[Nle]DKIHQQDFVNWLLAQK-NH2; N-terminus assumed), the half-life at 0.1 mg/ml in data set [1] is more than 48 h; in data set [2], 28.3 h.

With “Y[Aib]EGTF[Ac6c]SDYSIA[Nle]DKIHQQDFVNWLL[Aib]QKGKKNDWKHNITQ-OH [Example 30, (Aib^2, 28, A6c^7, Nle^14)hGIP(1-42)-OH]”, the results for the half-life at 0.1 mg/ml in data set [1] and in data set [2] were more than 48 h and 13.4 h, respectively.

Turning to “Y[Aib]EG[Aib]FISDYSIAMDKIHQQDFVNWLLAQKGKKNDWKHNITQ-OH [Example 4, (Aib^2, 5)hGIP(1-42)-OH]”, the half-life at 0.1 mg/ml is more than 48 h in data set [1] and 4.8 h in data set [2].

For the compound “Y[Aib]EGTF[Ac5c]SDYSIA[Ac5c]DKIHQQDFVNWLLAQKGKKNDWKHNITQ-OH [Example 59, (Aib^2, A5c^7, 14)hGIP(1-42)-OH]”, the half-life at 0.1 mg/ml in data set [1] was 24 h; in data set [2] it was 13.1 h.

Regarding `CCCC[C@H](NC(=O)[C@H](C)NC(=O)[C@@H](NC(=O)C1(NC(=O)[C@H](Cc2ccc(O)cc2)NC(=O)[C@H](CC(=O)O)NC(=O)[C@H](CO)NC(=O)[C@@H](NC(=O)[C@H](Cc2ccccc2)NC(=O)[C@@H](NC(=O)CNC(=O)[C@@H]2CCCN2C(=O)C(C)(C)NC(=O)[C@@H](N)Cc2ccc(O)cc2)[C@@H](C)O)[C@@H](C)CC)CCCC1)[C@@H](C)CC)C(=O)N[C@@H](CC(=O)O)C(=O)N[C@@H](CCCCN)C(=O)N[C@H](C(=O)N[C@@H](Cc1c[nH]cn1)C(=O)N[C@@H](CCC(N)=O)C(=O)N[C@@H](CCC(N)=O)C(=O)N[C@@H](CC(=O)O)C(=O)N[C@@H](Cc1ccccc1)C(=O)N[C@H](C(=O)N[C@@H](CC(N)=O)C(=O)N[C@@H](Cc1c[nH]c2ccccc12)C(=O)N[C@@H](CC(C)C)C(=O)N[C@@H](CC(C)C)C(=O)N[C@@H](C)C(=O)N[C@@H](CCC(N)=O)C(=O)N[C@@H](CCCCN)C(N)=O)C(C)C)[C@@H](C)CC` [Example 111, (Aib^2, Pro^3, A5c^11, Nle^14)hGIP(1-30)-NH2], the half-life at 0.1 mg/ml in data set [1] and in data set [2] was more than 54 h throughout.

Consider “Y[Aib]EGTF[Ac6c]SDYSIA[Nle]DK[Ac6c]HQQDFVNWLLAQKGKKNDWKHNITQ-OH [Example 37, (Aib^2, A6c^7, 17, Nle^14)hGIP(1-42)-OH]”, for which the figures for the half-life at 0.1 mg/ml in data set [1] and in data set [2] were more than 48 h and 14 h, respectively.

Take “Y[Aib]EGTF[Ac6c]SDYSIAMDKIHQQDFVNWLLAQKGKKNDC(X1)KHNITQ-OH [Example 81, [Aib^2, A6c^7, Cys(Psu)^36]hGIP(1-42)-OH]”: the half-life at 0.1 mg/ml in data set [1] is 8.2 h; in data set [2], 6.1 h.

With `CC[C@H](C)[C@H](NC(=O)[C@H](CCCCN)NC(=O)[C@H](CC(=O)O)NC(=O)[C@H](CCSC)NC(=O)[C@H](C)NC(=O)C(C)(C)NC(=O)[C@H](CO)NC(=O)[C@H](Cc1ccc(O)cc1)NC(=O)[C@H](CC(=O)O)NC(=O)[C@H](CO)NC(=O)[C@@H](NC(=O)[C@H](Cc1ccccc1)NC(=O)[C@@H](NC(=O)CNC(=O)[C@H](CCC(=O)O)NC(=O)C(C)(C)NC(=O)[C@@H](N)Cc1ccc(O)cc1)[C@@H](C)O)[C@@H](C)CC)C(=O)N[C@@H](Cc1c[nH]cn1)C(=O)N[C@@H](CCC(N)=O)C(=O)N[C@@H](CCC(N)=O)C(=O)N[C@@H](CC(=O)O)C(=O)N[C@@H](Cc1ccccc1)C(=O)N[C@H](C(=O)N[C@@H](CC(N)=O)C(=O)N[C@@H](Cc1c[nH]c2ccccc12)C(=O)N[C@@H](CC(C)C)C(=O)N[C@@H](CC(C)C)C(=O)N[C@@H](C)C(=O)N[C@@H](CCC(N)=O)C(=O)N[C@@H](CCCCN)C(N)=O)C(C)C` [Example 20, (Aib^2, 12)hGIP(1-30)-NH2] (H-Y[Aib]EGTFISDYS[Aib]AMDKIHQQDFVNWLLAQK-NH2; N-terminus assumed), the values for the half-life at 0.1 mg/ml in data set [1] and in data set [2] were 25.4 h and 42 h, respectively.

For the compound `CC[C@H](C)[C@H](NC(=O)[C@H](CCCCN)NC(=O)[C@H](CC(=O)O)NC(=O)[C@H](CCSC)NC(=O)[C@H](C)NC(=O)C1(NC(=O)[C@H](CO)NC(=O)[C@H](Cc2ccc(O)cc2)NC(=O)[C@H](CC(=O)O)NC(=O)[C@H](CO)NC(=O)[C@@H](NC(=O)[C@H](Cc2ccccc2)NC(=O)[C@@H](NC(=O)CNC(=O)[C@H](CCC(=O)O)NC(=O)C(C)(C)NC(=O)[C@@H](N)Cc2ccc(O)cc2)[C@@H](C)O)[C@@H](C)CC)CCCC1)C(=O)N[C@@H](Cc1c[nH]cn1)C(=O)N[C@@H](CCC(N)=O)C(=O)N[C@@H](CCC(N)=O)C(=O)N[C@@H](CC(=O)O)C(=O)N[C@@H](Cc1ccccc1)C(=O)N[C@H](C(=O)N[C@@H](CC(N)=O)C(=O)N[C@@H](Cc1c[nH]c2ccccc12)C(=O)N[C@@H](CC(C)C)C(=O)N[C@@H](CC(C)C)C(=O)N[C@@H](C)C(=O)N[C@@H](CCC(N)=O)C(=O)N[C@@H](CCCCN)C(N)=O)C(C)C` [Example 13, (Aib^2, A5c^12)hGIP(1-30)-NH2] (H-Y[Aib]EGTFISDYS[Ac5c]AMDKIHQQDFVNWLLAQK-NH2; N-terminus assumed), the results for the half-life at 0.1 mg/ml in data set [1] and in data set [2] were 35.4 h and more than 48 h, respectively.

As for `CC[C@H](C)[C@H](NC(=O)[C@H](CO)NC(=O)[C@H](Cc1ccc(O)cc1)NC(=O)[C@H](CC(=O)O)NC(=O)[C@H](CO)NC(=O)C1(NC(=O)[C@H](Cc2ccccc2)NC(=O)[C@@H](NC(=O)CNC(=O)[C@H](CCC(=O)O)NC(=O)C(C)(C)NC(=O)[C@@H](N)Cc2ccc(O)cc2)[C@@H](C)O)CCCC1)C(=O)N[C@@H](C)C(=O)N[C@@H](CCSC)C(=O)N[C@@H](CC(=O)O)C(=O)N[C@@H](CCCCN)C(=O)N[C@H](C(=O)N[C@@H](Cc1c[nH]cn1)C(=O)N[C@@H](CCC(N)=O)C(=O)N[C@@H](CCC(N)=O)C(=O)N[C@@H](CC(=O)O)C(=O)N[C@@H](Cc1ccccc1)C(=O)N[C@H](C(=O)N[C@@H](CC(N)=O)C(=O)N[C@@H](Cc1c[nH]c2ccccc12)C(=O)N[C@@H](CC(C)C)C(=O)N[C@@H](CC(C)C)C(=O)N[C@@H](C)C(=O)N[C@@H](CCC(N)=O)C(=O)N[C@@H](CCCCN)C(N)=O)C(C)C)[C@@H](C)CC` [Example 12, (Aib^2, A5c^7)hGIP(1-30)-NH2], the half-life at 0.1 mg/ml is 20.5 h in data set [1] and more than 48 h in data set [2].

Turning to “Y[Aib]EGTF[Ac6c]SDYSIAMDKIHQQDFVNWLLAQKGKKNDWKHNC(X1)TQ-OH [Example 78, [Aib^2, A6c^7, Cys(Psu)^40]hGIP(1-42)-OH]”, the half-life at 0.1 mg/ml in data set [1] was 10.1 h; in data set [2], 11.2 h.

In the case of `CCCC[C@H](NC(=O)[C@H](C)NC(=O)[C@@H](NC(=O)[C@H](CO)NC(=O)[C@H](Cc1ccc(O)cc1)NC(=O)[C@H](CC(=O)O)NC(=O)[C@H](CO)NC(=O)C1(NC(=O)[C@H](Cc2ccccc2)NC(=O)[C@@H](NC(=O)CNC(=O)[C@H](CCC(=O)O)NC(=O)C(C)(C)NC(=O)[C@@H](N)Cc2ccc(O)cc2)[C@@H](C)O)CCCCC1)[C@@H](C)CC)C(=O)N[C@@H](CC(=O)O)C(=O)N[C@@H](CCCCN)C(=O)N[C@H](C(=O)N[C@@H](Cc1c[nH]cn1)C(=O)N[C@@H](CCC(N)=O)C(=O)N[C@@H](CCC(N)=O)C(=O)N[C@@H](CC(=O)O)C(=O)N[C@@H](Cc1ccccc1)C(=O)N[C@H](C(=O)N[C@@H](CC(N)=O)C(=O)N[C@@H](Cc1c[nH]c2ccccc12)C(=O)N[C@@H](CC(C)C)C(=O)N[C@@H](CC(C)C)C(=O)N[C@@H](C)C(=O)N[C@@H](CCC(N)=O)C(=O)N[C@@H](CCCCN)C(N)=O)C(C)C)[C@@H](C)CC` [Example 31, (Aib^2, A6c^7, Nle^14)hGIP(1-30)-NH2] (H-Y[Aib]EGTF[Ac6c]SDYSIA[Nle]DKIHQQDFVNWLLAQK-NH2; N-terminus assumed), the half-life at 0.1 mg/ml in data set [1] is 36.5 h; in data set [2], 31.4 h.

As for “Y[Aib]EGTFISDY[Ac5c]IA[Nle]DKIHQQDFVNWLLAQKGKKNDWKHNITQ-OH [Example 54, (Aib^2, A5c^11, Nle^14)hGIP(1-42)-OH]”, the results for the half-life at 0.1 mg/ml in data set [1] and in data set [2] were more than 56 h and 44.1 h, respectively.
